Laboratory results as given in ChEMBL document CHEMBL3877335, “Bifunctional Inhibitors as a New Tool To Reduce Cancer Cell Invasion by Impairing MMP-9 Homodimerization” (ACS Med Chem Lett, 2017).
The source made the active and inactive calls. No cut-off for these calls is given here.

Key:
[1] = target: T1, Matrix metalloproteinase-9 (Homo sapiens, UniProt P14780); assay: Inhibition of MMP-9 homodimerization in human U343MG cells assessed as reduction in cell invasion at 25 nM measured after 24 hrs by p-formaldehyde/crystal violet staining based matrigel basement membrane transwell assay
[2] = target: T1, Matrix metalloproteinase-9; conditions: U-87MG ATCC, 25 nM
Description: Inhibition of MMP-9 homodimerization in human U87MG cells assessed as reduction in cell invasion at 25 nM measured after 24 hrs by p-formaldehyde/crystal violet staining based matrigel basement membrane transwell assay

[3] = target: T1, Matrix metalloproteinase-9; conditions: T98G, 25 nM
Description: Inhibition of MMP-9 homodimerization in human T98G cells assessed as reduction in cell invasion at 25 nM measured after 24 hrs by p-formaldehyde/crystal violet staining based matrigel basement membrane transwell assay

[4] = Antiproliferative activity against human T98G cells at 5 to 25 nM measured after 24 hrs by MTS assay; assay type: cell-based; conditions: 0.025 µM
[5] = target: T1, Matrix metalloproteinase-9; assay: Inhibition of MMP-9 homodimerization in human T98G cells assessed as reduction in cell invasion at 5 to 25 nM measured after 24 hrs by p-formaldehyde/crystal violet staining based matrigel basement membrane transwell assay
[6] = target: T1, Matrix metalloproteinase-9; assay: Inhibition of p-aminophenylmercuric acetate activated recombinant human MMP-9 expressed in CHO cells pretreated for 4 hrs followed by Mca-Lys-Pro-Leu-Gly-Leu-Dap(Dnp)-Ala-Arg-NH2 fluorogenic substrate addition measured every 15 secs for 20 mins by fluorimetric assay; assay type: cell-based
[7] = target: T1, Matrix metalloproteinase-9; assay: Inhibition of MMP-9 homodimerization in human U87MG cells assessed as reduction in cell invasion at 5 to 25 nM measured after 24 hrs by p-formaldehyde/crystal violet staining based matrigel basement membrane transwell assay; conditions: U-87MG ATCC
[8] = target: Matrix metalloproteinase-14 (Homo sapiens, UniProt P50281); assay: Inhibition of recombinant human MMP-14 catalytic domain pretreated for 4 hrs followed by Mca-Lys-Pro-Leu-Gly-Leu-Dap(Dnp)-Ala-Arg-NH2 fluorogenic substrate addition measured every 15 secs for 20 mins by fluorimetric assay
Interstitial collagenase = target: T2, Interstitial collagenase (Homo sapiens, UniProt P03956); assay: Inhibition of p-aminophenylmercuric acetate activated human rheumatoid synovial fibroblast MMP-1 pretreated for 4 hrs followed by Mca-Lys-Pro-Leu-Gly-Leu-Dap(Dnp)-Ala-Arg-NH2 fluorogenic substrate addition measured every 15 secs for 20 mins by fluorimetric assay
T2 sequence (P03956 whole entry): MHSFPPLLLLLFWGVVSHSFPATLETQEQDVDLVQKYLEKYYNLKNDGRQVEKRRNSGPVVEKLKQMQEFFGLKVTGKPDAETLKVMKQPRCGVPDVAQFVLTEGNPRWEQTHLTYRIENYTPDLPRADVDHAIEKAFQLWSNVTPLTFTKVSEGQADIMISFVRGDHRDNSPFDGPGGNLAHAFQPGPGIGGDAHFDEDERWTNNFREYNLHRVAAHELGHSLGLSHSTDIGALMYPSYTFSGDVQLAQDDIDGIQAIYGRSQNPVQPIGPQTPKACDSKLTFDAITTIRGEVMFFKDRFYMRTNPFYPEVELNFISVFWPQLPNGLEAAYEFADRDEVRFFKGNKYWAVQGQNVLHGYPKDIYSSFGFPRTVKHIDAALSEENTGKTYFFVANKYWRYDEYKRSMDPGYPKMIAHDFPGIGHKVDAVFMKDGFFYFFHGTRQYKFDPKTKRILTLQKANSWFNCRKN

[9] = target: 72 kDa type IV collagenase (Homo sapiens, UniProt P08253); assay: Inhibition of p-aminophenylmercuric acetate activated recombinant human MMP-2 expressed in CHO cells pretreated for 4 hrs followed by Mca-Lys-Pro-Leu-Gly-Leu-Dap(Dnp)-Ala-Arg-NH2 fluorogenic substrate addition measured every 15 secs for 20 mins by fluorimetric assay; assay type: cell-based
[10] = Antiproliferative activity against human U343MG cells at 5 to 25 nM measured after 24 hrs by MTS assay; assay type: cell-based; conditions: 0.025 µM
Homo sapiens = species on record: Homo sapiens; assay: Selectivity ratio of IC50 for p-aminophenylmercuric acetate activated human rheumatoid synovial fibroblast MMP-1 to IC50 for p-aminophenylmercuric acetate activated recombinant human MMP-9
[11] = Antiproliferative activity against human U87MG cells at 5 to 25 nM measured after 24 hrs by MTS assay; assay type: cell-based; conditions: u-87mg atcc, 0.025 µM

72 kDa type IV collagenase, sequence (P08253 whole entry): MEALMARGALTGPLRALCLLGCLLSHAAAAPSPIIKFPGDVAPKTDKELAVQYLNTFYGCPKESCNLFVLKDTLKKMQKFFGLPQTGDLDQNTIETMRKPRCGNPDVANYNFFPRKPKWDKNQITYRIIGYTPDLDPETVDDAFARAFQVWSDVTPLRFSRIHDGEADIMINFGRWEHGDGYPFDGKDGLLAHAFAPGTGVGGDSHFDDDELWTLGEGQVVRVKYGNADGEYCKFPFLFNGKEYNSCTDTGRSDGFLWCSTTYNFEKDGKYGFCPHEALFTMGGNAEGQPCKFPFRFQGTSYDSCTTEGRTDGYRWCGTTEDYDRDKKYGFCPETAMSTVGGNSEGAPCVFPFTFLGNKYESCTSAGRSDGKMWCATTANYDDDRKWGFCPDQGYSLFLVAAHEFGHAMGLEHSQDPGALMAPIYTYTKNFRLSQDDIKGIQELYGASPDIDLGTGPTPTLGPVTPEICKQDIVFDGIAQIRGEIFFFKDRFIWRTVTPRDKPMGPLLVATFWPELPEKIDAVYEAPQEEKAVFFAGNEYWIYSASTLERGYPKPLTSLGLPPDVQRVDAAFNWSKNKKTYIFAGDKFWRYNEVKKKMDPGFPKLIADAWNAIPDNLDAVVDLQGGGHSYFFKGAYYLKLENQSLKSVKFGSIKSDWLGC
T1 sequence (P14780 whole entry): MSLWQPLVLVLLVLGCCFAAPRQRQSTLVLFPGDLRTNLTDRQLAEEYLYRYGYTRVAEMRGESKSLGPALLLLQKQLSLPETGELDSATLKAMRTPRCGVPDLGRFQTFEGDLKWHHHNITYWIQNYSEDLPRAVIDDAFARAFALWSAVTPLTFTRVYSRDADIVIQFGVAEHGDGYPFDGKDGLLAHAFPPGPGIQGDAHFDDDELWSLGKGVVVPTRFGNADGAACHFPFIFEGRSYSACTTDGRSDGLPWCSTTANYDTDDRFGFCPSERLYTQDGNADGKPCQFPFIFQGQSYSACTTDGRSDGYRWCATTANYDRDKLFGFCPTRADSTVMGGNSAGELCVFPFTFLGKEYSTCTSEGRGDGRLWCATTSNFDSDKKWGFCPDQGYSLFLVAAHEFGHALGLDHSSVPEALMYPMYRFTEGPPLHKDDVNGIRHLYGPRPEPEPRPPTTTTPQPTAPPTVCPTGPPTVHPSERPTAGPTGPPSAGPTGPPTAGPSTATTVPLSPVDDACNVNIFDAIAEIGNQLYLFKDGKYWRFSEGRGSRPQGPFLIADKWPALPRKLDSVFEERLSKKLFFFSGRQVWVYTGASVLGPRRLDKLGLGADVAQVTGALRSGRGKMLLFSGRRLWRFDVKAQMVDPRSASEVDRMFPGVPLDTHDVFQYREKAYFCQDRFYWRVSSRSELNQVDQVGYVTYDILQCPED

| Structure (SMILES) | inhibition [1] | inhibition [2] | inhibition [3] | inhibition [5] | IC50 [6] | inhibition [7] | IC50 [8] | IC50 (Interstitial collagenase) | IC50 [9] | Ratio IC50 (Homo sapiens) | Activity [4] | Activity [10] | Activity [11] |
| --- | --- | --- | --- | --- | --- | --- | --- | --- | --- | --- | --- | --- | --- |
| COc1ccc(S(=O)(=O)N(Cc2cccnc2)[C@@H](C(=O)NO)C(C)C)cc1 | Active | Active | Active | – | – | – | – | – | – | – | – | – | – |
| CC(C)ON([C@H](CCNC(=O)CCCNC(=O)c1cccc(C(=O)NCCCC(=O)NCC[C@H](C(=O)NO)N(OC(C)C)S(=O)(=O)c2ccc(-c3ccccc3)cc2)c1)C(=O)NO)S(=O)(=O)c1ccc(-c2ccccc2)cc1 | – | – | – | – | 38 nM | – | 116 nM | 5200 nM | 20 nM | – | – | – | – |
| CC(C)[C@H](C(=O)O)N(CCNC(=O)c1ccccc1)S(=O)(=O)c1ccc(-c2ccccc2)cc1 | – | – | – | Active | 510 nM | Active | 1830 nM | 16000 nM | 170 nM | – | Non-Toxic | Non-Toxic | Non-Toxic |
| CC(C)[C@H](C(=O)NO)N(CCNC(=O)c1ccccc1)S(=O)(=O)c1ccc(-c2ccccc2)cc1 | – | – | – | Active | 2.5 nM | Active | 23 nM | 13 nM | 0.16 nM | – | Non-Toxic | Non-Toxic | Non-Toxic |

Second part, led by results:

| inhibition [1] | inhibition [2] | inhibition [3] | inhibition [5] | IC50 [6] | inhibition [7] | IC50 [8] | IC50 (Interstitial collagenase) | IC50 [9] | Ratio IC50 (Homo sapiens) | Structure (SMILES) | Activity [4] | Activity [10] | Activity [11] |
| --- | --- | --- | --- | --- | --- | --- | --- | --- | --- | --- | --- | --- | --- |
| Active | – | – | Active | 26 nM | Active | 2200 nM | 11800 nM | 63 nM | 450 | CC(C)[C@H](C(=O)O)N(CCNC(=O)c1cccc(C(=O)NCCN([C@@H](C(=O)O)C(C)C)S(=O)(=O)c2ccc(-c3ccccc3)cc2)c1)S(=O)(=O)c1ccc(-c2ccccc2)cc1 | Non-Toxic | Non-Toxic | Non-Toxic |
| Active | – | – | Active | 5.5 nM | Active | 250 nM | 280 nM | 10 nM | – | CC(C)[C@H](C(=O)NO)N(CCNC(=O)c1cccc(C(=O)NCCN([C@@H](C(=O)NO)C(C)C)S(=O)(=O)c2ccc(-c3ccccc3)cc2)c1)S(=O)(=O)c1ccc(-c2ccccc2)cc1 | Non-Toxic | Non-Toxic | Non-Toxic |
| – | – | – | – | 41 nM | – | 900 nM | 1600 nM | 107 nM | – | CC(C)[C@H](C(=O)NO)N(CCNC(=O)c1cccc(C(=O)NCCN([C@@H](C(=O)N(C)C)C(C)C)S(=O)(=O)c2ccc(-c3ccccc3)cc2)c1)S(=O)(=O)c1ccc(-c2ccccc2)cc1 | – | – | – |
| – | – | – | – | 34 nM | – | 850 nM | 2050 nM | 110 nM | – | CC(C)[C@H](C(=O)O)N(CCNC(=O)c1cccc(C(=O)NCCN([C@@H](C(=O)N(C)C)C(C)C)S(=O)(=O)c2ccc(-c3ccccc3)cc2)c1)S(=O)(=O)c1ccc(-c2ccccc2)cc1 | – | – | – |
